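Tested at 5 concentrations; 48 h exposure; 96-well plates; endpoints linearly interpolated, else capped at highest concentration. Here, GI50 denotes the concentration required for 50% inhibition of growth. Definition used: TGI = concentration required for complete inhibition of growth.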
Key:
Assay in all cases: NCI tumour cell line growth inhibition, 48 h
CAKI-1 renal = test system: CAKI-1 renal
MALME-3M melanoma = test system: MALME-3M melanoma
SNB-75 CNS = test system: SNB-75 CNS
NCI-H23 lung = test system: NCI-H23 lung
A498 renal = test system: A498 renal
SF-539 CNS = test system: SF-539 CNS
RXF 393 renal = test system: RXF 393 renal
HL-60(TB) leukemia = test system: HL-60(TB) leukemia
NCI-H522 lung = test system: NCI-H522 lung
HCT-116 colon = test system: HCT-116 colon

In the case of `COc1cc(CCNc2nc3cc(N)cc(N)c3nc2-c2ccccc2)cc(OC)c1`, the GI50 (CAKI-1 renal) is reported as 1.93 µM, the TGI (CAKI-1 renal) is reported as 3.6 µM and the GI50 (MALME-3M melanoma) is reported as 1.18 µM. The TGI (MALME-3M melanoma) was 2.53 µM, the GI50 (SNB-75 CNS) was 1.37 µM and the TGI (SNB-75 CNS) was 2.85 µM. The GI50 (NCI-H23 lung) was 1.59 µM, the TGI (NCI-H23 lung) was 3.58 µM and the GI50 (A498 renal) was 3.95 µM. For the same molecule, the TGI (A498 renal) was 14.3 µM, the GI50 (SF-539 CNS) was 2.19 µM and the TGI (SF-539 CNS) was 4.14 µM. The GI50 (RXF 393 renal) was 1.59 µM, the TGI (RXF 393 renal) was 4.8 µM and the GI50 (HL-60(TB) leukemia) was 1.25 µM. The TGI (HL-60(TB) leukemia) was 3.33 µM.
With `C[CH2][Sn]([Cl])([CH2]C)[CH2]C` the GI50 (NCI-H522 lung) was 0.705 µM, the TGI (NCI-H522 lung) was 3.15 µM and the GI50 (HCT-116 colon) was 1.33 µM. The TGI (HCT-116 colon) was 10.4 µM, the GI50 (MALME-3M melanoma) was 0.572 µM and the TGI (MALME-3M melanoma) was 3.77 µM. It also gave a GI50 (SNB-75 CNS) of 0.255 µM, a TGI (SNB-75 CNS) of 0.549 µM and a GI50 (NCI-H23 lung) of 0.556 µM. For the same molecule, the TGI (NCI-H23 lung) was 4.84 µM, the GI50 (SF-539 CNS) was 1.01 µM and the TGI (SF-539 CNS) was 2.91 µM.
`O=c1nc(-c2ccccc2)scc1-c1ccccc1` gave a TGI (CAKI-1 renal) greater than 100 µM, a TGI (NCI-H522 lung) greater than 100 µM and a TGI (HCT-116 colon) greater than 100 µM. It also gave a TGI (MALME-3M melanoma) greater than 100 µM, a TGI (SNB-75 CNS) greater than 100 µM and a TGI (NCI-H23 lung) greater than 100 µM. The TGI (SF-539 CNS) was greater than 100 µM, the TGI (RXF 393 renal) was greater than 100 µM and the TGI (HL-60(TB) leukemia) was greater than 100 µM.
For `COc1ccc2cc(C(=O)/C=C/c3ccco3)ccc2c1`, the GI50 (CAKI-1 renal) was 38.7 µM, the TGI (CAKI-1 renal) was greater than 100 µM and the GI50 (NCI-H522 lung) was 19.7 µM. It also gave a TGI (NCI-H522 lung) of 58.5 µM, a GI50 (HCT-116 colon) of 1.29 µM and a TGI (HCT-116 colon) of 35.6 µM. For the same molecule, the GI50 (MALME-3M melanoma) was 31 µM, the TGI (MALME-3M melanoma) was greater than 100 µM and the GI50 (SNB-75 CNS) was greater than 100 µM. It also gave a TGI (SNB-75 CNS) greater than 100 µM, a GI50 (NCI-H23 lung) of 19.5 µM and a TGI (NCI-H23 lung) of 42.7 µM. The GI50 (RXF 393 renal) was 15.9 µM, the TGI (RXF 393 renal) was 38.7 µM and the GI50 (HL-60(TB) leukemia) was 24.6 µM. It also gave a TGI (HL-60(TB) leukemia) of 83.3 µM.
Work on `Cc1cc2c(=O)c3ccccc3oc2c(C#N)c1C` yielded a TGI (CAKI-1 renal) greater than 100 µM, a TGI (HCT-116 colon) greater than 100 µM and a TGI (MALME-3M melanoma) greater than 100 µM. For the same molecule, the TGI (SNB-75 CNS) was greater than 100 µM, the TGI (NCI-H23 lung) was greater than 100 µM and the TGI (A498 renal) was greater than 100 µM. The TGI (RXF 393 renal) was greater than 100 µM and the TGI (HL-60(TB) leukemia) was greater than 100 µM.
In the case of `C[C@]12CC/C(=N\OC(=O)Nc3ccccc3)C=C1CC[C@@H]1C2CC[C@@]2(C)C1CC[C@@H]2OC(=O)Nc1ccccc1` (stereo partly specified), the TGI (CAKI-1 renal) is reported as 19.8 µM, the TGI (HCT-116 colon) is reported as greater than 100 µM and the TGI (SNB-75 CNS) is reported as greater than 100 µM. The TGI (NCI-H23 lung) was greater than 100 µM, the TGI (A498 renal) was greater than 100 µM and the TGI (SF-539 CNS) was greater than 100 µM. It also gave a TGI (HL-60(TB) leukemia) greater than 100 µM.
With `O=C1C(Cl)=C(Nc2cccc(O)c2)C(=O)N1c1ccc(Cl)cc1Cl` the GI50 (CAKI-1 renal) was 12.9 µM, the TGI (CAKI-1 renal) was 45 µM and the GI50 (NCI-H522 lung) was 13.8 µM. It also gave a TGI (NCI-H522 lung) of 32.9 µM, a GI50 (HCT-116 colon) of 24.3 µM and a TGI (HCT-116 colon) of 97.6 µM. The GI50 (MALME-3M melanoma) was 31.6 µM, the TGI (MALME-3M melanoma) was 92 µM and the GI50 (NCI-H23 lung) was 24.9 µM. It also gave a TGI (NCI-H23 lung) of 88.7 µM, a GI50 (RXF 393 renal) of 17 µM and a TGI (RXF 393 renal) of 67.3 µM.
For `Cc1cc(O)c(O)c(Oc2cc(C)cc(O)c2O)c1`, the TGI (CAKI-1 renal) was greater than 100 µM, the TGI (NCI-H522 lung) was 34.8 µM and the TGI (HCT-116 colon) was 41.1 µM. The TGI (SNB-75 CNS) was greater than 100 µM, the TGI (NCI-H23 lung) was greater than 100 µM and the TGI (A498 renal) was greater than 100 µM. The TGI (SF-539 CNS) was greater than 100 µM, the TGI (RXF 393 renal) was 88.2 µM and the TGI (HL-60(TB) leukemia) was 5.54 µM.
In the case of `CCOC1=C2C(C)(CCC3[C@@]4(C)C=CC(=O)C(C)(C)C4CC(O)[C@@]23C)C(c2ccoc2)C1=O` (stereo partly specified), the TGI (CAKI-1 renal) is reported as greater than 100 µM, the TGI (HCT-116 colon) is reported as 23.7 µM and the TGI (SNB-75 CNS) is reported as greater than 100 µM. It also gave a TGI (NCI-H23 lung) of 34.8 µM, a TGI (A498 renal) of 33.9 µM and a TGI (SF-539 CNS) of 41.7 µM. For the same molecule, the TGI (RXF 393 renal) was 34 µM and the TGI (HL-60(TB) leukemia) was 36.3 µM.
`CS(=O)(=O)N(CC(=O)O)Cc1ccccc1` was tested, and the TGI (CAKI-1 renal) was greater than 100 µM, the TGI (NCI-H522 lung) was greater than 100 µM and the TGI (HCT-116 colon) was greater than 100 µM. It also gave a TGI (MALME-3M melanoma) greater than 100 µM, a TGI (SNB-75 CNS) greater than 100 µM and a TGI (NCI-H23 lung) greater than 100 µM. The TGI (A498 renal) was greater than 100 µM, the TGI (SF-539 CNS) was greater than 100 µM and the TGI (RXF 393 renal) was greater than 100 µM.

Source: PubChem BioAssay (NCI)
